Legend:
Test in all cases: KINOMEscan competition binding
Details in all cases: compound 10.0 µM
[1] = system: PIK3CA (human), P42336 [E545K]
[2] = system: KIT (human), P10721 [D816V]
[3] = system: FLT3 (human), P36888 [K663Q]
[4] = system: EIF2AK4 KD2 (human), Q9P2K8 [S808G]
[5] = system: FLT3 (human), P36888 [ITD]
[6] = system: PIK3CA (human), P42336 [H1047Y]
[7] = system: ABL1 (human), P00519 [E255K]
[8] = system: FLT3 (human), P36888 [N841I]
[9] = system: KIT (human), P10721 [V559D]
[10] = system: PIK3CA (human), P42336 [E545A]
Sequence of PIK3CA (human), P42336 [E545A] (P42336 whole entry E545A, looked up): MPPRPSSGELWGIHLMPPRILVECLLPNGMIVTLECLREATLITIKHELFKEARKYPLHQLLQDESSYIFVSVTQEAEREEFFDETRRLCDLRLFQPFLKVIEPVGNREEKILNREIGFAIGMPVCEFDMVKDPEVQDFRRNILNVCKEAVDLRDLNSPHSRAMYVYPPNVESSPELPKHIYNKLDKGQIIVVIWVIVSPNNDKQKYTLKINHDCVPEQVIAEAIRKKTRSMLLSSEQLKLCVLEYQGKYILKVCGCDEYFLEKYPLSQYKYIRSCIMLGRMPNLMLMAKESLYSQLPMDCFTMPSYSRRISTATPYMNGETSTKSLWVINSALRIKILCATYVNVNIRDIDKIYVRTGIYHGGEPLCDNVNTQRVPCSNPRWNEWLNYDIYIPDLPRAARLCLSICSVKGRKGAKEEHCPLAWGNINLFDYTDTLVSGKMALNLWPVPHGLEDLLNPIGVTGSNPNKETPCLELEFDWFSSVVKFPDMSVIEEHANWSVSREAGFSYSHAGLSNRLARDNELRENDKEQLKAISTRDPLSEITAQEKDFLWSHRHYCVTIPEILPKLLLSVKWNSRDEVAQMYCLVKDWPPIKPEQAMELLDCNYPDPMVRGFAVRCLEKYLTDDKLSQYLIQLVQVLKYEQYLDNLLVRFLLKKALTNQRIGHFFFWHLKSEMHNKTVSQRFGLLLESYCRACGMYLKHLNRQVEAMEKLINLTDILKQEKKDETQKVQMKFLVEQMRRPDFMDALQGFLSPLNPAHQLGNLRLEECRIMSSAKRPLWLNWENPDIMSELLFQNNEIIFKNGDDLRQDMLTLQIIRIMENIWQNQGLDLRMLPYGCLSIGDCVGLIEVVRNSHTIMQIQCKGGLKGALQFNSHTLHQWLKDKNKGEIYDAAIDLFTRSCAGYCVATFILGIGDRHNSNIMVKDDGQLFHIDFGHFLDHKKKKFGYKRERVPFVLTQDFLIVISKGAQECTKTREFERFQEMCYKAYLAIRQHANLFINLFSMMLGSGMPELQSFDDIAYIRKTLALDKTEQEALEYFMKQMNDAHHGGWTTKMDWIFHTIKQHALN

[11] = system: PIK3CA (human), P42336 [Q546K]
Sequence of PIK3CA (human), P42336 [Q546K] (P42336 whole entry Q546K, looked up): as the sequence (P42336 whole entry E545A, looked up) above, with A545E, Q546K counted along it

[12] = system: KIT (human), P10721 [V559D/T670I]
Sequence of KIT (human), P10721 [V559D/T670I] (P10721 whole entry V559D/T670I, looked up): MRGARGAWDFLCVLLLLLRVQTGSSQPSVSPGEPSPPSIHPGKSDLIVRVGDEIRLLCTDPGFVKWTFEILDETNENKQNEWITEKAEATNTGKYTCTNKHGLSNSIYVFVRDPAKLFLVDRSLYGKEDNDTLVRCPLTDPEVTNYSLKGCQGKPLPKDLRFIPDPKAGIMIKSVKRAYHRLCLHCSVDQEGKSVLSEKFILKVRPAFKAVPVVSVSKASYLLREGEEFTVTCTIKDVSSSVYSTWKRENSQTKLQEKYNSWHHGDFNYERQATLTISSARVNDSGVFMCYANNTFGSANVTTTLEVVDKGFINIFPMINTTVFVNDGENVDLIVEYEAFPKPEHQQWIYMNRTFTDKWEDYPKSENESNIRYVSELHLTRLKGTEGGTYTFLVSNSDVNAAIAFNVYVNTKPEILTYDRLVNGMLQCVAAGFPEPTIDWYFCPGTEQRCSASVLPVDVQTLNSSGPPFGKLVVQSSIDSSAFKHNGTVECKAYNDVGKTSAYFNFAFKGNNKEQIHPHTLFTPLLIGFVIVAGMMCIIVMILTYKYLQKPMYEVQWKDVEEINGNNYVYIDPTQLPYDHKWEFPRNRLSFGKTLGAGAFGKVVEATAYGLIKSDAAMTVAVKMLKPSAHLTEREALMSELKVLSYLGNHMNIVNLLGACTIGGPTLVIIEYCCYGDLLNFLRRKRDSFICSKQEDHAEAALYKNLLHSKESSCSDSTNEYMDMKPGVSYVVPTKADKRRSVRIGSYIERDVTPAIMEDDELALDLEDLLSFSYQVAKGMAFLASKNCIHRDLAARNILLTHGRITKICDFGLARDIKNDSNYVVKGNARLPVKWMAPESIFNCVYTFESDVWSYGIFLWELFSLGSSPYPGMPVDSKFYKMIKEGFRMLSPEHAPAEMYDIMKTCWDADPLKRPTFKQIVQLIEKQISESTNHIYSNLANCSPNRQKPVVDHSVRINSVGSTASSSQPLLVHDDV

[13] = system: PIK3CA (human), P42336 [I800L]
Sequence of PIK3CA (human), P42336 [I800L] (P42336 whole entry I800L, looked up): as the sequence (P42336 whole entry E545A, looked up) above, with A545E, I800L counted along it

[14] = system: ABL1 (human), P00519 [M351T]
[15] = system: PIK3CA (human), P42336 [C420R]
Sequence of PIK3CA (human), P42336 [C420R] (P42336 whole entry C420R, looked up): as the sequence (P42336 whole entry E545A, looked up) above, with C420R, A545E counted along it

[16] = system: EGFR (human), P00533 [L861Q]
[17] = system: EGFR (human), P00533 [G719S]
[18] = system: EGFR (human), P00533 [P753S; 747-752 del]
[19] = system: EGFR (human), P00533 [746-750 del]

Sequence of PIK3CA (human), P42336 [H1047Y] (P42336 whole entry H1047Y, looked up): as the sequence (P42336 whole entry E545A, looked up) above, with A545E, H1047Y counted along it
Sequence of KIT (human), P10721 [D816V] (P10721 whole entry D816V, looked up): as the sequence (P10721 whole entry V559D/T670I, looked up) above, with D559V, I670T, D816V counted along it
Sequence of KIT (human), P10721 [V559D] (P10721 whole entry V559D, looked up): as the sequence (P10721 whole entry V559D/T670I, looked up) above, with I670T counted along it
Sequence of PIK3CA (human), P42336 [E545K] (P42336 whole entry E545K, looked up): as the sequence (P42336 whole entry E545A, looked up) above, with A545K counted along it
Sequence of EIF2AK4 KD2 (human), Q9P2K8 [S808G] (Q9P2K8 whole entry S808G, looked up): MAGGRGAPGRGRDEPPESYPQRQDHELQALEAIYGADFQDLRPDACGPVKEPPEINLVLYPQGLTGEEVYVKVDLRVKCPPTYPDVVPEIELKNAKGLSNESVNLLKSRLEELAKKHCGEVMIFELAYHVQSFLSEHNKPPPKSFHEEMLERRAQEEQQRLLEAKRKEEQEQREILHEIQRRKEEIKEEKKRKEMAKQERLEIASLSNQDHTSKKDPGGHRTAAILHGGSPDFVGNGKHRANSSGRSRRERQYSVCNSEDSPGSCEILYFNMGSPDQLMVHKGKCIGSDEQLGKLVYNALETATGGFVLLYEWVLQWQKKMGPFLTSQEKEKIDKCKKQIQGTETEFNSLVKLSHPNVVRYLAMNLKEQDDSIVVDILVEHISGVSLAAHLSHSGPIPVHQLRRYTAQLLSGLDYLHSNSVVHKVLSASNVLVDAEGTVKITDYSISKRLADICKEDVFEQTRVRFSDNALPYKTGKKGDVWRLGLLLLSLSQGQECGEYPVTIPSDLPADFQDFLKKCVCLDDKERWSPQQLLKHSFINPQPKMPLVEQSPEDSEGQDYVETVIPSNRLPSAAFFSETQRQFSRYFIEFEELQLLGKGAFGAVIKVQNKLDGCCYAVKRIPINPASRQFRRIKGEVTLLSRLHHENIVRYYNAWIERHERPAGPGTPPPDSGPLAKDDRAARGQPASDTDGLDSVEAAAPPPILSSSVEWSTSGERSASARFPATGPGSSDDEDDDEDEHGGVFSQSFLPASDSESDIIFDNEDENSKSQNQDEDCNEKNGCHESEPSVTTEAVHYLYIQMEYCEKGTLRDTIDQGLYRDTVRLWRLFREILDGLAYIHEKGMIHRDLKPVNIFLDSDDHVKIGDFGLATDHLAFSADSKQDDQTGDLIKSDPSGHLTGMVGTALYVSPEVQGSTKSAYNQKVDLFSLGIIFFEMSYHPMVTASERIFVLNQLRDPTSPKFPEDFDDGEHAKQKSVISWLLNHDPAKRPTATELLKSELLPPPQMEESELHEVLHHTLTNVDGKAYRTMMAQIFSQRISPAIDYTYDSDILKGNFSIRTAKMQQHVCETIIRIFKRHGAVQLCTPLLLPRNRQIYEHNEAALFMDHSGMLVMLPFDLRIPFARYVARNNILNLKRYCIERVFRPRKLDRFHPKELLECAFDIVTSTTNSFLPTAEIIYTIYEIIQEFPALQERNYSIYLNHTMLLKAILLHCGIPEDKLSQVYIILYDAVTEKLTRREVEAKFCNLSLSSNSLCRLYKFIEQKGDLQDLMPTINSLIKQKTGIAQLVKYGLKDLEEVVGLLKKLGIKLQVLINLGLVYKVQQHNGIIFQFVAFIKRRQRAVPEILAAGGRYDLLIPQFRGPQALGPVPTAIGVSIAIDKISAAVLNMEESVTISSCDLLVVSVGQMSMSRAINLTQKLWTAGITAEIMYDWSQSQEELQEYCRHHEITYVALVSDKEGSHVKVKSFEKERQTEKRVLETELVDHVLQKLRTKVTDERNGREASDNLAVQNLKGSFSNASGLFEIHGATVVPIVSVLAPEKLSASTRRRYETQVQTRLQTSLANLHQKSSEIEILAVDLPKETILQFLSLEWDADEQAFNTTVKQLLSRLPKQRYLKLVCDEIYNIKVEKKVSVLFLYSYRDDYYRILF

Row | Structure (SMILES) | kinase still bound, per cent of control [1] [%] | kinase still bound, per cent of control [2] [%] | kinase still bound, per cent of control [3] [%] | kinase still bound, per cent of control [4] [%] | kinase still bound, per cent of control [5] [%] | kinase still bound, per cent of control [6] [%] | kinase still bound, per cent of control [7] [%] | kinase still bound, per cent of control [8] [%] | kinase still bound, per cent of control [9] [%] | kinase still bound, per cent of control [10] [%] | kinase still bound, per cent of control [11] [%] | kinase still bound, per cent of control [12] [%] | kinase still bound, per cent of control [13] [%] | kinase still bound, per cent of control [14] [%] | kinase still bound, per cent of control [15] [%] | kinase still bound, per cent of control [16] [%] | kinase still bound, per cent of control [17] [%] | kinase still bound, per cent of control [18] [%] | kinase still bound, per cent of control [19] [%]
1 | N#C/C(=C1/Nc2ccccc2S1)c1ccnc(NCCc2cccnc2)n1 | 96 | 50 | 95 | 60 | 92 | 66 | 79 | 48 | 26 | 41 | 81 | 52 | 27 | 88 | 86 |  |  |  | 
2 | N#CCNC(=O)c1ccc(-c2ccnc(Nc3ccc(N4CCOCC4)cc3)n2)cc1 | 100 | 16 |  | 1.2 | 22 | 100 | 29 | 2.2 | 16 |  | 100 | 45 |  | 66 | 100 | 66 | 79 | 100 | 100
3 | COCC(=O)NC/C=C/c1ccc2ncnc(Nc3ccc(Oc4ccc(C)nc4)c(C)c3)c2c1 | 100 | 89 | 79 | 81 | 87 | 47 |  | 79 | 17 | 33 | 38 | 100 | 100 |  |  |  |  |  | 
4 | CNC(=O)c1cc(Oc2ccc(NC(=O)Nc3ccc(Cl)c(C(F)(F)F)c3)cc2)ccn1 |  | 3.6 | 0.5 |  | 2.8 |  |  | 0.25 | 0.05 |  |  | 0.1 |  |  |  |  |  |  | 
5 | CC(=O)c1c(C)c2cnc(Nc3ccc(N4CCNCC4)cn3)nc2n(C2CCCC2)c1=O | 75 | 74 | 30 | 0.4 | 20 | 17 | 44 | 2.1 | 45 | 10 | 10 | 61 | 6 |  | 41 | 82 |  | 87 | 
6 | CCc1nc(-c2cccc(C)c2)c(-c2ccnc(NC(=O)c3ccccc3)c2)s1 | 98 | 5.6 | 17 | 100 | 50 | 50 | 24 | 28 | 32 | 54 | 32 |  | 99 |  | 72 |  |  |  | 
7 | C[C@@H](Oc1cc(-c2cnn(C3CCNCC3)c2)cnc1N)c1c(Cl)ccc(F)c1Cl | 100 | 32 | 5.6 | 100 |  | 18 |  | 2 | 27 | 21 | 17 | 7 |  |  | 71 |  |  |  | 

Source: the kinase profiling compilation of Christmann-Franck et al. (2016)
